Results from patent US20230277483A1, “COMPOSITIONS AND METHODS TO TREAT INFLAMMATION” (University of Iowa Research Foundation, priority 2022, published 2023).

Test system: human gingival fibroblasts (HGF)
Test: Proinflammatory cytokines after Pg-LPS challenge (qRT-PCR, ELISA, antibody array)
Assay type: cell-based
Procedure: Sg metabolites modulate proinflammatory cytokines in human periodontal associated cells in vitro. Sg were cultured in a total of 40 ml DMEM for 24 hrs. After 200 μl of Sg suspension reached 0.2 at OD600 value in a 96-well plate, the Sg metabolites were collected by centrifugation at 3000 g for 10 min and then filtered through a 0.22 μm filter. No toxicity of Sg metabolites was detected using an MTT assay on primary human bone marrow mesenchymal stromal cells (BMSCs) and primary human gingival fibroblasts (HGF) (data no shown). The modulation of Sg metabolites on inflammatory cytokines was tested using human monocyte-derived macrophages (MDM) and HGF. The MDM were generated by inducing a human macrophage cell line (THP-1) using PMA at 10 ng/ml. The MDM at 2×10^6 cells/per well and HGF at 2×10^4 cells/per well were cultured in 24-well plates using DMEM with 10% FBS and 1% PS. The Sg metabolites at 1 and 5% v/v were added and incubated for 24 hrs before challenging with Pg-LPS at 100 ng/ml.
L-Norleucine as well as other metabolites modulate proinflammatory cytokines in macrophages and HGF. L-Norleucine was obtained commercially (Sigma) and dissolved in DMEM. Mouse macrophages and human HGF were cultured with DMEM supplemented with different concentrations of L-Norleucine and subsequently challenged with Pg-LPS at 100 ng/ml.
Human monocyte-derived macrophages (MDM) using THP-1 cells and HGF were cultured in a 24-well plate with DMEM and challenged with Pg-LPS at 100 ng/ml.
In addition, freshly isolated epidydimal white adipose tissues (eWAT) from mice on a HFD for 16 weeks were minced and cultured in 24-well plates and treated with HCA at 0.5 and 1.0 μM in DMEM/F-12 containing 10% cosmic calf serum (CCS) and 1% penicillin-streptomycin (basal growth media, BGM). […] These preliminary data are strong evidence that Sg metabolites have the potential to modulate host inflammatory responses and attenuate inflammation.
HCA promotes proliferation of health related bacteria and inhibits proliferation and attachment of periodontopathogenic bacteria. Promoting the growth of health-related commensal bacteria while inhibiting proliferation and attachment of pathogenic bacteria may be effective at preventing or treating periodontal inflammation. To determine if HCA has an effect on the growth properties of commensal bacteria and periodontopathogens, HCA at different concentrations was added to aerobic culture of S. mitis and S. oralis and anaerobic culture of T. denticola as described in our published manuscript (see detail in Shu et al, Journal of Periodontology, 2022). FIGS. 18A-C summarize the functions of HCA on the proliferation of specific commensal and pathogenic bacteria. […] Furthermore, the function of HCA on P. gingivalis attachment, a key parameter of adhesion and biofilm formation by periodontopathogenic bacteria, was investigated. […] Attachment measurements of P. gingivalis were performed based on our published studies (see detail in Shu et al, Journal of Periodontology, 2022). […] To test the biocompatibility and anti-inflammatory properties of HCA, human monocyte-derived macrophages (MDM) and gingival fibroblasts (HGF) were prepared as described in our previous studies. The cells were then treated with HCA from 0.1 to 50 μM. No toxicity was observed after treatment with different concentrations of HCA in either cell type using an MTT assay (FIGS. 19A and B, left column). The anti-inflammatory function of HCA on MDM and HGF after exposure to P. gingivalis lipopolysaccharide (PG-LPS) was investigated. […] HCA mitigates inflammation and affects the composition of microbiomes in vivo. Recent studies investigated whether HCA modulates periodontal inflammation using a mouse model. To induce periodontal inflammation, a total of 1 μl Pg-LPS at 10 μg/μl was directly injected twice a week into the interdental region between maxillary molars of C57BL/6J mice using a Hamilton1700 series syringe according to our previously published studies. […]

O=C(O)CCCCCO [HCA, 6-hydroxycaproic acid]
transcripts of IL-1β, IL-6, and IL-8 (HCA at 0.1 μM, 6 hours following PG-LPS challenge at 0.1 μg/mL): significantly downregulated | protein levels of IL-6 and IL-8 (HCA at 0.1 μM, HGF lysate, after 24 hrs): significantly reduced | transcripts of IL-1β, 6, and 8 (HCA at 0.1 and 1.0 μM, Pg-LPS at 100 ng/ml, after 6 hrs): significantly downregulated | proinflammatory cytokines (transcripts of IL-1β, 6 and 8) (at 0.1 μg after Pg-LPS challenge): modulate
